US11649237B2, “Substituted imidazo[1,5-a]pyrazines for IRE1 inhibition” (Optikira LLC, priority 2017, dated 2023)

System: XBP-1 splicing in ARPE-19 cells or apoptosis of INS-1 cells expressing mIRE-1
Assay: Cellular assay (XBP1 splicing assay or apoptosis assay)
Assay type: cell-based
Conditions: data are for the XBP1 splicing assay or the apoptosis assay (not specified per compound)
Method: ARPE-19 cells stably expressing XBP-1 (a.a. 1-376) with nano-luciferase gene sequence linked so it is in frame when XBP-1 is spliced, were cultured in F12 media, 10% FBS, 0.044% sodium bicarbonate, 150 μg/ml hygromycin B and seeded for assays at 5,000 cells in 384 well plates in culture media without hygromycin B and incubated at 37° C./5% CO2. […] After further incubation of 30 minutes thapsigargin was added (final concentration 150 nM) and then another 4 hour incubation. A NanoLuc luciferase assay (Promega) was used according to the manufacturer's instructions to detect the luciferase and luminescence measured on a luminometer (EnVision, PerkinElmer).
Doxycycline (final concentration 100 nM) was added and plates incubated for a further 72 hours. To determine the proportion of apoptotic cells Hoechst 33342 (final concentration 10 μg/mL) was added, then after 30 minutes incubation cells imaged and analyzed on an InCell high content imager.

| Compound | IC50 |
| --- | --- |
| CNC1CC=C(c2cnc(N)c3c(-c4ccc(NC(=O)Nc5cccc(C#N)c5)c5ccccc45)nc(C(C)C)n23)CC1 (centres unmarked) [Example 142, 1-(4-(8-amino-3-isopropyl-5-(4-(methylamino)cyclohex-1-en-1-yl)imidazo[1,5-a]pyrazin-1-yl)naphthalen-1-yl)-3-(3-cyanophenyl)urea] | 94 nM |
| CNC1CC=C(c2cnc(N)c3c(-c4ccc(NC(=O)Nc5ccc(OC)c(OC)c5)c5ccccc45)nc(C(C)C)n23)CC1 (centres unmarked) [Example 143, 1-(4-(8-amino-3-isopropyl-5-(4-(methylamino)cyclohex-1-en-1-yl)imidazo[1,5-a]pyrazin-1-yl)naphthalen-1-yl)-3-(3,4-dimethoxyphenyl)urea] | 210 nM |
| CNC1CC=C(c2cnc(N)c3c(-c4ccc(NC(=O)Nc5ccncc5)c5ccccc45)nc(C(C)C)n23)CC1 (centres unmarked) [Example 144, 1-(4-(8-amino-3-isopropyl-5-(4-(methylamino)cyclohex-1-en-1-yl)imidazo[1,5-a]pyrazin-1-yl)naphthalen-1-yl)-3-(pyridin-4-yl)urea] | 490 nM |
| CNC1CC=C(c2cnc(N)c3c(-c4ccc(NC(=O)Nc5ccc(F)cc5)c5ccccc45)nc(C(C)C)n23)CC1 (centres unmarked) [Example 145, 1-(4-(8-amino-3-isopropyl-5-(4-(methylamino)cyclohex-1-en-1-yl)imidazo[1,5-a]pyrazin-1-yl)naphthalen-1-yl)-3-(4-fluorophenyl)urea] | 74 nM |
| CNC1CC=C(c2cnc(N)c3c(-c4ccc(NC(=O)Nc5cc(F)cc(OC)c5)cc4F)nc(C(C)C)n23)CC1 (centres unmarked) [Example 146, 1-(4-(8-amino-3-isopropyl-5-(4-(methylamino)cyclohex-1-en-1-yl)imidazo[1,5-a]pyrazin-1-yl)-3-fluorophenyl)-3-(3-fluoro-5-methoxyphenyl)urea] | 240 nM |
| CNC1CC=C(c2cnc(N)c3c(-c4ccc(NC(=O)Nc5cccnc5)c5ccccc45)nc(C)n23)CC1 (centres unmarked) [Example 147, 1-(4-(8-amino-3-methyl-5-(4-(methylamino)cyclohex-1-en-1-yl)imidazo[1,5-a]pyrazin-1-yl)naphthalen-1-yl)-3-(pyridin-3-yl)urea] | 3100 nM |
| CNC1CC=C(c2cnc(N)c3c(-c4ccc(NC(=O)Nc5cncc(OC)c5)cc4F)nc(C(C)C)n23)CC1 (centres unmarked) [Example 148, 1-(4-(8-amino-3-isopropyl-5-(4-(methylamino)cyclohex-1-en-1-yl)imidazo[1,5-a]pyrazin-1-yl)-3-fluorophenyl)-3-(5-methoxypyridin-3-yl)urea] | 1300 nM |
| CNC1CC=C(c2cnc(N)c3c(-c4ccc(NC(=O)Nc5cncc(F)c5)cc4F)nc(C(C)C)n23)CC1 (centres unmarked) [Example 149, 1-(4-(8-amino-3-isopropyl-5-(4-(methylamino)cyclohex-1-en-1-yl)imidazo[1,5-a]pyrazin-1-yl)-3-fluorophenyl)-3-(5-fluoropyridin-3-yl)urea] | 780 nM |
| CNC1CC=C(c2cnc(N)c3c(-c4ccc(NC(=O)Nc5ccsc5)c5ccccc45)nc(C(C)C)n23)CC1 (centres unmarked) [Example 150, 1-(4-(8-amino-3-isopropyl-5-(4-(methylamino)cyclohex-1-en-1-yl)imidazo[1,5-a]pyrazin-1-yl)naphthalen-1-yl)-3-(thiophen-3-yl)urea] | 90 nM |
| CNC1CC=C(c2cnc(N)c3c(-c4ccc(NC(=O)Nc5cc(F)cc(F)c5)c5ccccc45)nc(C(C)C)n23)CC1 (centres unmarked) [Example 151, 1-(4-(8-amino-3-isopropyl-5-(4-(methylamino)cyclohex-1-en-1-yl)imidazo[1,5-a]pyrazin-1-yl)naphthalen-1-yl)-3-(3,5-difluorophenyl)urea] | 60 nM |
| CNC1CC=C(c2cnc(N)c3c(-c4ccc(NC(=O)Nc5ccccc5F)c5ccccc45)nc(C(C)C)n23)CC1 (centres unmarked) [Example 152, 1-(4-(8-amino-3-isopropyl-5-(4-(methylamino)cyclohex-1-en-1-yl)imidazo[1,5-a]pyrazin-1-yl)naphthalen-1-yl)-3-(2-fluorophenyl)urea] | 100 nM |
| CNC1CC=C(c2cncc3c(-c4ccc(NC(=O)Nc5ccccc5)c5ccccc45)nc(C(C)C)n23)CC1 (centres unmarked) [Example 155, 1-(4-(3-isopropyl-5-(4-(methylamino)cyclohex-1-en-1-yl)imidazo[1,5-a]pyrazin-1-yl)naphthalen-1-yl)-3-phenylurea] | 640 nM |
| CNC1CC=C(c2cnc(N)c3c(-c4ccc(Cc5nc6cccc(C)c6[nH]5)c5ccccc45)nc(C(C)C)n23)CC1 (centres unmarked) [Example 156, 3-Isopropyl-1-(4-((7-methyl-1H-benzo[d]imidazol-2-yl)methyl)naphthalen-1-yl)-5-(4-(methylamino)cyclohex-1-en-1-yl)imidazo[1,5-a]pyrazin-8-amine] | 16 nM |
| CNC1CC=C(c2cnc(N)c3c(-c4ccc(Cc5ncc(-c6ccccc6)[nH]5)c5ccccc45)nc(C(C)C)n23)CC1 (centres unmarked) [Example 168, 3-Isopropyl-5-(4-(methylamino)cyclohex-1-en-1-yl)-1-(4-((5-phenyl-1H-imidazol-2-yl)methyl)naphthalen-1-yl)imidazo[1,5-a]pyrazin-8-amine] | 96 nM |
| CNC1CC=C(c2cnc(N)c3c(-c4ccc(NS(=O)(=O)Cc5ccccc5Cl)c(F)c4)nc(C(C)C)n23)CC1 (centres unmarked) [Example 169, N-(4-(8-Amino-3-isopropyl-5-(4-(methylamino)cyclohex-1-en-1-yl)imidazo[1,5-a]pyrazin-1-yl)-2-fluorophenyl)-1-(2-chlorophenyl)methanesulfonamide] | 31 nM |
| CNC1CC=C(c2cnc(N)c3c(-c4ccc(NS(=O)(=O)c5cc(C)ccc5F)c5ccccc45)nc(C(C)C)n23)CC1 (centres unmarked) [Example 185, N-(4-(8-amino-3-isopropyl-5-(4-(methylamino)cyclohex-1-en-1-yl)imidazo[1,5-a]pyrazin-1-yl)naphthalen-1-yl)-2-fluoro-5-methylbenzenesulfonamide] | 210 nM |
| CNC1CC=C(c2cnc(N)c3c(-c4ccc(NS(=O)(=O)c5cc(Cl)ccc5Cl)cc4F)nc(C(C)C)n23)CC1 (centres unmarked) [Example 195, N-(4-(8-amino-3-isopropyl-5-(4-(methylamino)cyclohex-1-en-1-yl)imidazo[1,5-a]pyrazin-1-yl)-3-fluorophenyl)-2,5-dichlorobenzenesulfonamide] | 66 nM |
| CNC1CC=C(c2cnc(N)c3c(-c4ccc(NS(=O)(=O)c5cc(C)ccc5F)c(F)c4)nc(C(C)C)n23)CC1 (centres unmarked) [Example 218, N-(4-{8-amino-5-[4-(methylamino)cyclohex-1-en-1-yl]-3-(propan-2-yl)imidazo[1,5-a]pyrazin-1-yl}-2-fluorophenyl)-2-fluoro-5-methylbenzene-1-sulfonamide] | 25 nM |
| CNC1CC=C(c2cnc(N)c3c(-c4ccc(NS(=O)(=O)c5cc(C)ccc5Cl)c5ccccc45)nc(C(C)C)n23)CC1 (centres unmarked) [Example 219, N-(4-{8-amino-5-[4-(methylamino)cyclohex-1-en-1-yl]-3-(propan-2-yl)imidazo[1,5-a]pyrazin-1-yl}naphthalen-1-yl)-2-chloro-5-methylbenzene-1-sulfonamide] | 20 nM |
| CC(C)c1nc(-c2ccc(NS(=O)(=O)Cc3ccccc3Cl)c(F)c2)c2c(N)ncc(C3=CCC(NCCF)CC3)n12 (centres unmarked) [Example 220, N-(4-(8-amino-5-(4-((2-fluoroethyl)amino)cyclohex-1-en-1-yl)-3-isopropylimidazo[1,5-a]pyrazin-1-yl)-2-fluorophenyl)-1-(2-chlorophenyl) methanesulfonamide] | 50 nM |
